Reference: patent US8648086B2, “5,6-bicyclic heteroaryl-containing urea compounds as kinase inhibitors” (Ascepion Pharmaceuticals, Inc., priority 2009, dated 2014)

What was measured:
[1] = target: T1, CSF-1R (Homo sapiens, UniProt P07333); assay: KINOMEscan competition binding assay, CSF-1R; conditions: compound at 100 nM; lower number indicates stronger hit
T1 construct: purchased KINOMEscan service (Ambit Biosciences, San Diego)
Experimental: (§1) A standard competition binding assay can be used to test the ability of a compound of this invention on competing with both intended and unintended kinases in vitro. To screen a compound against a large number of human kinases, a competition binding assay with an active-site dependent binding technology was performed by KINOMEscan service (Ambit Biosciences, San Diego, Cal., USA). Three components were combined in this assay—DNA-tagged kinase, immobilized ligand, and the test compound. The ability of the test compound to compete with the immobilized ligand was measured by quantitative PCR of the DNA of the DNA tag. A number of the compounds of this invention were screened at the concentration of 100 nM by this binding assay, and the results were reported as “% Ctrl,” and the lower number indicates stronger “hit” in this matrix.

[2] = target: T2, EPHA2 (Homo sapiens, UniProt P29317); assay: KINOMEscan competition binding assay, EPHA2; conditions: compound at 100 nM; lower number indicates stronger hit
T2 construct: purchased KINOMEscan service (Ambit Biosciences, San Diego)
T2 sequence (P29317 24-976): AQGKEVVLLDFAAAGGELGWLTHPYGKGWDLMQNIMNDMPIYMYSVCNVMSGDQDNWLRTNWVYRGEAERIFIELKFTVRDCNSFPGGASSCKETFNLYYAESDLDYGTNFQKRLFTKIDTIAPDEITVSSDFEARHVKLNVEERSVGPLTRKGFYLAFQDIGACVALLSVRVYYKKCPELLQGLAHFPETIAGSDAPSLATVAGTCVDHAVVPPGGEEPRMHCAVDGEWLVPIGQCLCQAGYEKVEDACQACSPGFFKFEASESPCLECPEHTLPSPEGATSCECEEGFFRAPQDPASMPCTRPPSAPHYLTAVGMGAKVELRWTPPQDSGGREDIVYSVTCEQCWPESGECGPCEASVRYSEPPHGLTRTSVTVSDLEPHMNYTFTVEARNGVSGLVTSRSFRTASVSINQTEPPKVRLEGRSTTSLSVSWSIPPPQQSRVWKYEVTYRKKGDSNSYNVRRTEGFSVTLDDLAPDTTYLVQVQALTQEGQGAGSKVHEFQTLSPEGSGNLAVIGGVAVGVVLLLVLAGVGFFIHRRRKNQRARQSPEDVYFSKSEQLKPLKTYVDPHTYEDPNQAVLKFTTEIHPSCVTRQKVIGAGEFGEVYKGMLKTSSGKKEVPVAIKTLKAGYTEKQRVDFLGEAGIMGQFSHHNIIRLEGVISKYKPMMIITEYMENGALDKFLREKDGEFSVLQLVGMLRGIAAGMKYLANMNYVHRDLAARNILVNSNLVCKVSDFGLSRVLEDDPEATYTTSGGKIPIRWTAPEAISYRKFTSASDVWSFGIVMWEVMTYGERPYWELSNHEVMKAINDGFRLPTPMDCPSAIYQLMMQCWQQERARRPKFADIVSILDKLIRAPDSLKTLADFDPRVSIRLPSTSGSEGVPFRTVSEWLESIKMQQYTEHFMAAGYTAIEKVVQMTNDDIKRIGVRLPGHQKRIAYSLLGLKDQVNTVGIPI
Experimental: as §1

[3] = tested on: A549 human non-small cell lung cancer cells; assay: In vivo anti-tumor efficacy, A549 xenograft; conditions: Non-small cell lung cancer A549, nu/nu Balb/c mice, 50 mg/kg oral once per day, n = 2 × 3
Experimental: (§2) Female (nu/nu) Balb/c athymic mice at 4-6 weeks of age were injected subcutaneously (s.c.) with MDA-MB-231 human breast cancer cells, A549 human non-small cell lung cancer cells, U87-MG human glioblastoma cells, PC-3 human prostate cancer cells, HT-29 human colon cancer, BEL-7404 human hepatocellular carcinoma, or MKN-45 human gastric cancer cells (ATCC, 5×10^6 cells suspended in 100 μl DMEM medium). Treatment was initiated after the tumor mass grown from s.c. implanted tumor cells reached a median volume of 200-400 mm^3. Mice were randomized into groups with three in each group for small-sample efficacy tests such that the median tumor volume is nearly equal among all groups. For large-sample efficacy tests, mice were randomized into groups with thirteen or fourteen in each group. Each group was treated either with compounds (dissolved in 2:1 mixture of PEG400 and 0.01N HCl (v/v)) or without compounds (vehicle only, 2:1 mixture of PEG400 and 0.01N HCl (v/v)) once per day at dose 12.5, 25, 50 or 100 mg/kg by oral gavage. Tumor volumes were assessed at least twice weekly by caliper measurement from the start of treatment. Tumor volume was calculated using the formula ½×L×W^2 (L: length of tumor's long axis, W: length of tumor's short axis). Treatment was applied for at least two weeks or until the tumor volume reaches a size of ˜2500 mm^3 or greater. Mice were humanly sacrificed after the experiment. The efficacy of compounds in reducing tumor growth was assessed by the index Tumor Growth Inhibition (TGI). TGI for a given treatment period was calculated using the group mean tumor volumes according to the formula: TGI=100×(VVehicle—group−VTreatment—group)÷VVehicle—group wherein VVehicle—group represents the mean tumor volume for the group treated with vehicle and VTreatment—group represents the mean tumor volume of the group treated with a compound.

[4] = tested on: PC-3 human prostate cancer cells; assay: In vivo anti-tumor efficacy, PC-3 xenograft; conditions: Prostate cancer PC-3, nu/nu Balb/c mice, 50 mg/kg oral once per day, n = 2 × 3
Experimental: as §2

[5] = tested on: BEL-7404 human hepatocellular carcinoma; assay: In vivo anti-tumor efficacy, BEL-7404 xenograft; conditions: Liver cancer BEL-7404, nu/nu Balb/c mice, 50 mg/kg oral once per day, n = 2 × 3
Experimental: Female (nu/nu) Balb/c athymic mice at 4-6 weeks of age were injected subcutaneously (s.c.) with MDA-MB-231 human breast cancer cells, A549 human non-small cell lung cancer cells, U87-MG human glioblastoma cells, PC-3 human prostate cancer cells, HT-29 human colon cancer, BEL-7404 human hepatocellular carcinoma, or MKN-45 human gastric cancer cells (ATCC, 5×10^6 cells suspended in 100 μl DMEM medium). Treatment was initiated after the tumor mass grown from s.c. implanted tumor cells reached a median volume of 200-400 mm^3. Mice were randomized into groups with three in each group for small-sample efficacy tests such that the median tumor volume is nearly equal among all groups. […] Tumor volumes were assessed at least twice weekly by caliper measurement from the start of treatment. Tumor volume was calculated using the formula ½×L×W^2 (L: length of tumor's long axis, W: length of tumor's short axis). […]
The efficacy of compounds in reducing tumor growth was assessed by the index Tumor Growth Inhibition (TGI). TGI for a given treatment period was calculated using the group mean tumor volumes according to the formula: TGI=100×(VVehicle—group−VTreatment—group)÷VVehicle—group wherein VVehicle—group represents the mean tumor volume for the group treated with vehicle and VTreatment—group represents the mean tumor volume of the group treated with a compound.

[6] = tested on: HT-29 human colon cancer; assay: In vivo anti-tumor efficacy, HT-29 xenograft; conditions: Colon cancer HT-29, nu/nu Balb/c mice, 50 mg/kg oral once per day, n = 2 × 3
Experimental: Female (nu/nu) Balb/c athymic mice at 4-6 weeks of age were injected subcutaneously (s.c.) with MDA-MB-231 human breast cancer cells, A549 human non-small cell lung cancer cells, U87-MG human glioblastoma cells, PC-3 human prostate cancer cells, HT-29 human colon cancer, BEL-7404 human hepatocellular carcinoma, or MKN-45 human gastric cancer cells (ATCC, 5×10^6 cells suspended in 100 μl DMEM medium). Treatment was initiated after the tumor mass grown from s.c. implanted tumor cells reached a median volume of 200-400 mm^3. Mice were randomized into groups with three in each group for small-sample efficacy tests such that the median tumor volume is nearly equal among all groups. […] Tumor volumes were assessed at least twice weekly by caliper measurement from the start of treatment. Tumor volume was calculated using the formula ½×L×W^2 (L: length of tumor's long axis, W: length of tumor's short axis). […] The efficacy of compounds in reducing tumor growth was assessed by the index Tumor Growth Inhibition (TGI). TGI for a given treatment period was calculated using the group mean tumor volumes according to the formula: TGI=100×(VVehicle—group−VTreatment—group)÷VVehicle—group wherein VVehicle—group represents the mean tumor volume for the group treated with vehicle and VTreatment—group represents the mean tumor volume of the group treated with a compound.

[7] = target: T3, PDGFRβ (Homo sapiens, UniProt P09619); assay: PDGFRβ cell-based assay (phospho-PDGFRβ ELISA, transfected CHO cells); conditions: compound at 100 nM, read-out: % PDGFRβ kinase activity remains
T3 construct: expressed in transfected cells; host or cells: CHO cells, pcDNA3.1 plasmid
T3 sequence (P09619 33-1106, species assumed): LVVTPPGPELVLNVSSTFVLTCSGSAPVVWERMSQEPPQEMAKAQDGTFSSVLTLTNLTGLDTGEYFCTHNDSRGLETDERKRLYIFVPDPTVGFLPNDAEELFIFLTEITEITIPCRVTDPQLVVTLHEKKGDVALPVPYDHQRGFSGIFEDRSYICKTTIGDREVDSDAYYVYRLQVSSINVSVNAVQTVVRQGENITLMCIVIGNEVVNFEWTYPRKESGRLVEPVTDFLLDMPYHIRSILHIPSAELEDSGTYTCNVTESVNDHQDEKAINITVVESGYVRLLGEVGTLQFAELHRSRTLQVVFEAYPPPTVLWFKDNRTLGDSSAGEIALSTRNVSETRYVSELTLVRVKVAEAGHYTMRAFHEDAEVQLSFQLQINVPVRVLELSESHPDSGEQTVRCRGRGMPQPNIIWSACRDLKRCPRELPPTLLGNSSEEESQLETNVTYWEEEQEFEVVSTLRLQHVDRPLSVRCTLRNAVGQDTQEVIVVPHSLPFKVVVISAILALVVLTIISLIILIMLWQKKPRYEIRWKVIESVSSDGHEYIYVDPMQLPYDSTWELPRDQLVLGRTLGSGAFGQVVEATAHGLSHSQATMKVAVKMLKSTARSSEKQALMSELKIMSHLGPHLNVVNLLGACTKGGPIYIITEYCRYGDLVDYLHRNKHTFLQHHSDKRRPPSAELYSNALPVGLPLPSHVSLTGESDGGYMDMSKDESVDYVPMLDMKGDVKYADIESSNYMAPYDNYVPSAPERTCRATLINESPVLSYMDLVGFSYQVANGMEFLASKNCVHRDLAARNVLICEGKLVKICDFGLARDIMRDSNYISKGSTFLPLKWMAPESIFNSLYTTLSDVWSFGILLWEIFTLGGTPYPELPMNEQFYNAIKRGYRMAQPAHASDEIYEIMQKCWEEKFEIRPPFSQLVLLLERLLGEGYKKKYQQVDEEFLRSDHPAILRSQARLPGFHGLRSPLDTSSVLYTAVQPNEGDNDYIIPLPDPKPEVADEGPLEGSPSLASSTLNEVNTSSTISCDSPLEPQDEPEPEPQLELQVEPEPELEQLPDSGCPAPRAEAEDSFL
Outline: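 CHO cells transiently transfected with full-length human PDGFRβ, serum-starved overnight in DMEM, then treated 2 h with compound (0.5–500 nM) before 20% FBS stimulation. Lysates of ~5×10^5 cells analysed by sandwich ELISA for phospho- and total PDGFRβ with streptavidin-HRP chemiluminescent detection.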

T1 sequence (P07333 20-972): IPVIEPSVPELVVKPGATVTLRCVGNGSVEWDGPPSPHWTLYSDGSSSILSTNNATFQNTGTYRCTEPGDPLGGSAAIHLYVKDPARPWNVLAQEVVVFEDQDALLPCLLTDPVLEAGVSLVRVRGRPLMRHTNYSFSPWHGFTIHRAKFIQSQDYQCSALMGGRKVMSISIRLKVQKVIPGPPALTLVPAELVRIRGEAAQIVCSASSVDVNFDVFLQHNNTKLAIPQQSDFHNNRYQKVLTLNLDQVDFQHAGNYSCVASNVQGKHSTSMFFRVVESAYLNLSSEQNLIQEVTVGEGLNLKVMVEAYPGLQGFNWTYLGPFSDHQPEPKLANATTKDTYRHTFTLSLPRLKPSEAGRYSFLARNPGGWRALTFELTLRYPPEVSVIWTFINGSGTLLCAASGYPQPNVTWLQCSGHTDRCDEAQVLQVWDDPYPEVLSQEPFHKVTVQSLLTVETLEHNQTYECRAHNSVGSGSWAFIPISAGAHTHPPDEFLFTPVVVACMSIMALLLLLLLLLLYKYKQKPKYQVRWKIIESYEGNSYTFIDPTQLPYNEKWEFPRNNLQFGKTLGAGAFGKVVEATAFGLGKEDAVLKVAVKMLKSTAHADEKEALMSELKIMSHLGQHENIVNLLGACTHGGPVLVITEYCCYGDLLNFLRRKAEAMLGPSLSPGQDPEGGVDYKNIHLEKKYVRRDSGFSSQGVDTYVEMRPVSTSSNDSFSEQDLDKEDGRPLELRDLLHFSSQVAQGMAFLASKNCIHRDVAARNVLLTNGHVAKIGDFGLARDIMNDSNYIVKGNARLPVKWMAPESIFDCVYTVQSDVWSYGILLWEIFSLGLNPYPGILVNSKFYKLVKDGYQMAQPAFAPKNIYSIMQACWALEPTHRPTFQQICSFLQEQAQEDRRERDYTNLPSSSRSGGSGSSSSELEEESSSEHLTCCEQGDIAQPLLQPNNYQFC

| SMILES | CSF-1R % Ctrl [1] [% Ctrl] | EPHA2 % Ctrl [2] [% Ctrl] | Tumor Growth Inhibition (TGI) [3] | Tumor Growth Inhibition (TGI) [4] | Tumor Growth Inhibition (TGI) [5] | Tumor Growth Inhibition (TGI) [6] | remaining activity at 0.1 µM [7] [%] |
| --- | --- | --- | --- | --- | --- | --- | --- |
| Cl.O=C(Nc1cc(Cl)ccc1F)Nc1cccc2c1ccn2Cc1ccnc2[nH]ccc12 [Example 56, 1-(2-Fluoro-5-chlorophenyl)-3-[1-(1H-pyrrolo[2,3-b]pyridin-4-ylmethyl)-1H-indol-4-yl]urea hydrochloride] | 3.4 | 12 | A (the TGI is greater or equal to 50%) | A (the TGI is greater or equal to 50%) | A (the TGI is greater or equal to 50%) | A (the TGI is greater or equal to 50%) |  |
| Cl.O=C(Nc1cccc(C(F)(F)F)c1)Nc1cccc2c1ccn2Cc1ccnc2[nH]ccc12 [Example 51, 1-(3-Trifluoromethylphenyl)-3-[1-(1H-pyrrolo[2,3-b]pyridin-4-ylmethyl)-1H-indol-4-yl]urea hydrochloride] |  |  | A (the TGI is greater or equal to 50%) | A (the TGI is greater or equal to 50%) |  |  | ≥ 70 |
